Assay [1] has as its system A. baumannii 801. Nature of the assay: Immunosuppressed mouse pneumonia infection survival model. The format is in vivo. The method, then: (§1) To induce neutropenia in 6-week-old female ICR (CD-1) mice weighing 23 g to 27 g (Orient Bio, Seongnam, Korea), the mice were treated (subcutaneously injected) with 150 mg/kg and 100 mg/kg of cyclophosphamide (CP), respectively, 4 days and 1 day before pneumonia infection. For a mouse model for survival analysis, the mice were infected intranasally with 1×10^8 CFU A. baumannii 801; and for a mouse model for colony number counting, the mice were infected intranasally with 1×10^6 CFU A. baumannii 801.
The sensitizing peptide CMP1401 of the present disclosure was administered by intraperitoneal injection 4 times daily for 2 days (25 mg/kg QID). Six mice were used per each group.

Assay [2] relates to A. baumannii 801. Nature of the assay: Immunosuppressed rat pneumonia infection model. The format is in vivo. To be noted: 5 mg/kg of rifampicin and 3 mg/kg or 6 mg/kg of CMP1401 (intravenous infusion 1 hour) vs 32 mg/kg colistin. Here is the method:
The results are illustrated in FIG. 16.
32 mg/kg of colistin is known as a clinical dose used for treatment of A. baumannii 801. Therefore, an effect observed in a case where 32 mg/kg of colistin was used alone may be a criterion for comparing effectiveness of co-administration of CMP1401 and an antibacterial agent in this example.

Assay [3] deals with A. baumannii 801. Put plainly: Neutropenic mouse pneumonia model, number of colonies in lungs. The class given is in vivo. Here is the method:
as §1
In addition to the survival rate in the neutropenic mouse pneumoniae mouse model, the number of colonies of A. baumannii 801 was measured in the mouse lungs. The mice were euthanized and lungs were harvested in sterile saline. The lungs were homogenized and serially diluted in sterile saline. The homogenized lungs were applied to tryptic soy agar plates, incubated at 37° C. overnight, and the number of colonies was counted. […] Six mice were used per each group.

The subject of assay [4] is Kp NDM-1. Nature of the assay: MIC assay, sensitizing effect of peptide on rifampicin (CRE). To be noted: FIG. 9F; Kp NDM-1 (CRE); peptide 4 ug/ml. The class given is cell-based, Klebsiella pneumoniae. The method, then: All MIC assay experiments were performed using the Clinical and Laboratory Standards Institute (CLSI) guidelines (Clinical & Laboratory Standards Institute: CLSI Guidelines, 2017). Bacterial cells cultured overnight were diluted to 0.05 McFarland standard using McFarland (KIT […] PLUS INSTRUMENT, Biomerieux) in Muller Hinton II Broth (cation-adjusted) (Difco). The cells were inoculated at 1.5×10^5 CFU per 200 μL solution of each well in a 96-well plate. The peptide and the antibiotic were prepared using 2-fold serially diluted concentrations. […] Incubation was performed at 37° C. for 18 hours, and then absorbance was measured at 600 nm using an EPOCH2 microplate reader (BioTek, Winooski, USA) to calculate a MIC value. The MIC value was defined as a concentration of the antibiotic or peptide at which bacterial growth was inhibited to a level of lower than 10% growth of the positive control. Fold reduction was calculated using the following expression.
ATCC 25922, A.b. ATCC 17978, K.p. ATCC 700603, and P.a. ATCC 27853, or CRE (E.c. NDM-1, K.p. NDM-1, or K.p. KPC) (FIGS. 9 and 10).

The mark [5] stands for this setting: 2.5 mg/kg rifampicin + 25 mg/kg CMP1401 vs 2.5 mg/kg rifampicin alone.

* marks the point of attachment. Octanoyl = CCCCCCCC(=O)*

The values below come from patent publication US20230181678A1, “NOVEL ANTIBACTERIAL PEPTIDE OR PEPTIDE ANALOG AND USE THEREOF” (CAMP THERAPEUTICS INC., priority 2020, published 2023).

On to “OctA-KKALKLAKKPLKLLK-NH2 (Octanoyl-KKALKLAKKPLKLLK-NH2) [CMP1401]”, for which, in assay [1] (2.5 mg/kg of rifampicin and 25 mg/kg of CMP1401 (intraperitoneal, QID) co-administered), the survival rate was 50%. The “survival rate higher than rifampicin alone” value in assay [1] (setting [5]) is recorded as “about 33.3%”. The “survival / antibacterial activity, peptide administered alone” value in assay [1] (CMP1401 administered alone) was “all mice died”. Also, the “effect of co-administration with rifampicin compared with colistin” value in assay [2] is given as “comparable to that observed in a case where 32 mg/kg of colistin was administered”. Also, the “number of colonies fewer than rifampicin alone group” value in assay [3] (setting [5]) is listed as “about 12 times”. The “number of colonies fewer than untreated group (control)” value in assay [3] (rifampicin and CMP1401 co-administered vs untreated) was “about 60 times”. Further, the “number of colonies fewer than rifampicin and SPR741 group” value in assay [3] (rifampicin and CMP1401 vs rifampicin and SPR741) was “about 30 times”. Besides, the “Decreased MIC value of rifampicin at peptide concentration of 4 ug/ml” value in assay [4] is 7.8 ng/mL.
